In US20140348819A1, “Methods of Treating Cancer” (Dana-Farber Cancer Institute, Inc., priority 2011, published 2014):

System: six V600E BRAF melanoma cell lines
Assay: Screening of recombinant RTK ligands for ability to confer resistance to BRAFi (PLX4720) or MEKi (PD184352) (Table 4)
Format: cell-based, human
Set-up: ability of recombinant RTK ligand to confer resistance / ability of recombinant RTK ligand to confer resistance (screening value): scale not given here
Procedure, shortened: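 Six V600E BRAF melanoma lines treated with PLX4720 or PD184352 after addition of 22 recombinant RTK ligands, scored for drug resistance. Activation of selected RTKs confirmed by western blotting and high-throughput tyrosine kinase phosphorylation profiling.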

**Q.** Which results are given for SCF?
**A.** ability of recombinant RTK ligand to confer resistance (A2058, PD184352 - 1 uM, ligand 0.4 ng/ml): 1.04; ability of recombinant RTK ligand to confer resistance (A2058, PD184352 - 1 uM, ligand 1.6 ng/ml): 1.04; ability of recombinant RTK ligand to confer resistance (A2058, PD184352 - 1 uM, ligand 6.25 ng/ml): 1.13; ability of recombinant RTK ligand to confer resistance (A2058, PD184352 - 1 uM, ligand 25 ng/ml): 1.12; ability of recombinant RTK ligand to confer resistance (A2058, PD184352 - 1 uM, ligand 100 ng/ml): 1.09; ability of recombinant RTK ligand to confer resistance (A2058, PLX4720 - 2 uM, ligand 0.4 ng/ml): 1.04; ability of recombinant RTK ligand to confer resistance (A2058, PLX4720 - 2 uM, ligand 1.6 ng/ml): 1.06; ability of recombinant RTK ligand to confer resistance (A2058, PLX4720 - 2 uM, ligand 6.25 ng/ml): 1.07; ability of recombinant RTK ligand to confer resistance (A2058, PLX4720 - 2 uM, ligand 25 ng/ml): 1.13; ability of recombinant RTK ligand to confer resistance (A2058, PLX4720 - 2 uM, ligand 100 ng/ml): 1.08; ability of recombinant RTK ligand to confer resistance (C32, PD184352 - 1 uM, ligand 0.4 ng/ml): 1.02; ability of recombinant RTK ligand to confer resistance (C32, PD184352 - 1 uM, ligand 1.6 ng/ml): 1.05; ability of recombinant RTK ligand to confer resistance (C32, PD184352 - 1 uM, ligand 6.25 ng/ml): 1.03; ability of recombinant RTK ligand to confer resistance (C32, PD184352 - 1 uM, ligand 25 ng/ml): 1.04; ability of recombinant RTK ligand to confer resistance (C32, PD184352 - 1 uM, ligand 100 ng/ml): 0.98; ability of recombinant RTK ligand to confer resistance (C32, PLX4720 - 2 uM, ligand 0.4 ng/ml): 1.05; ability of recombinant RTK ligand to confer resistance (C32, PLX4720 - 2 uM, ligand 1.6 ng/ml): 0.94; ability of recombinant RTK ligand to confer resistance (C32, PLX4720 - 2 uM, ligand 6.25 ng/ml): 0.97; ability of recombinant RTK ligand to confer resistance (C32, PLX4720 - 2 uM, ligand 25 ng/ml): 0.98; ability of recombinant RTK ligand to confer resistance (C32, PLX4720 - 2 uM, ligand 100 ng/ml): 0.96; ability of recombinant RTK ligand to confer resistance (Colo 829, PD184352 - 1 uM, ligand 0.4 ng/ml): 1.00; ability of recombinant RTK ligand to confer resistance (Colo 829, PD184352 - 1 uM, ligand 1.6 ng/ml): 1.08; ability of recombinant RTK ligand to confer resistance (Colo 829, PD184352 - 1 uM, ligand 6.25 ng/ml): 1.15; ability of recombinant RTK ligand to confer resistance (Colo 829, PD184352 - 1 uM, ligand 25 ng/ml): 1.18; ability of recombinant RTK ligand to confer resistance (Colo 829, PD184352 - 1 uM, ligand 100 ng/ml): 1.09; ability of recombinant RTK ligand to confer resistance (Colo 829, PLX4720 - 2 uM, ligand 0.4 ng/ml): 0.96; ability of recombinant RTK ligand to confer resistance (Colo 829, PLX4720 - 2 uM, ligand 1.6 ng/ml): 1.01; ability of recombinant RTK ligand to confer resistance (Colo 829, PLX4720 - 2 uM, ligand 6.25 ng/ml): 1.06; ability of recombinant RTK ligand to confer resistance (Colo 829, PLX4720 - 2 uM, ligand 25 ng/ml): 1.10; ability of recombinant RTK ligand to confer resistance (Colo 829, PLX4720 - 2 uM, ligand 100 ng/ml): 1.04; ability of recombinant RTK ligand to confer resistance (G-361, PD184352 - 1 uM, ligand 0.4 ng/ml): 1.06; ability of recombinant RTK ligand to confer resistance (G-361, PD184352 - 1 uM, ligand 1.6 ng/ml): 0.99; ability of recombinant RTK ligand to confer resistance (G-361, PD184352 - 1 uM, ligand 6.25 ng/ml): 1.06; ability of recombinant RTK ligand to confer resistance (G-361, PD184352 - 1 uM, ligand 25 ng/ml): 1.13; ability of recombinant RTK ligand to confer resistance (G-361, PD184352 - 1 uM, ligand 100 ng/ml): 1.07; ability of recombinant RTK ligand to confer resistance (G-361, PLX4720 - 2 uM, ligand 0.4 ng/ml): 1.07; ability of recombinant RTK ligand to confer resistance (G-361, PLX4720 - 2 uM, ligand 1.6 ng/ml): 1.03; ability of recombinant RTK ligand to confer resistance (G-361, PLX4720 - 2 uM, ligand 6.25 ng/ml): 1.04; ability of recombinant RTK ligand to confer resistance (G-361, PLX4720 - 2 uM, ligand 25 ng/ml): 1.12; ability of recombinant RTK ligand to confer resistance (G-361, PLX4720 - 2 uM, ligand 100 ng/ml): 1.07; ability of recombinant RTK ligand to confer resistance (SK-MEL-5, PD184352 - 1 uM, ligand 0.4 ng/ml): 0.97; ability of recombinant RTK ligand to confer resistance (SK-MEL-5, PD184352 - 1 uM, ligand 1.6 ng/ml): 0.34; ability of recombinant RTK ligand to confer resistance (SK-MEL-5, PD184352 - 1 uM, ligand 6.25 ng/ml): 1.02; ability of recombinant RTK ligand to confer resistance (SK-MEL-5, PD184352 - 1 uM, ligand 25 ng/ml): 1.10; ability of recombinant RTK ligand to confer resistance (SK-MEL-5, PD184352 - 1 uM, ligand 100 ng/ml): 1.12; ability of recombinant RTK ligand to confer resistance (SK-MEL-5, PLX4720 - 2 uM, ligand 0.4 ng/ml): 0.90; ability of recombinant RTK ligand to confer resistance (SK-MEL-5, PLX4720 - 2 uM, ligand 1.6 ng/ml): 8.91; ability of recombinant RTK ligand to confer resistance (SK-MEL-5, PLX4720 - 2 uM, ligand 6.25 ng/ml): 0.96; ability of recombinant RTK ligand to confer resistance (SK-MEL-5, PLX4720 - 2 uM, ligand 25 ng/ml): 1.00; ability of recombinant RTK ligand to confer resistance (SK-MEL-5, PLX4720 - 2 uM, ligand 100 ng/ml): 1.09; ability of recombinant RTK ligand to confer resistance (SK-MEL-28, PD184352 - 1 uM, ligand 0.4 ng/ml): 1.03; ability of recombinant RTK ligand to confer resistance (SK-MEL-28, PD184352 - 1 uM, ligand 1.6 ng/ml): 0.94; ability of recombinant RTK ligand to confer resistance (SK-MEL-28, PD184352 - 1 uM, ligand 6.25 ng/ml): 1.01; ability of recombinant RTK ligand to confer resistance (SK-MEL-28, PD184352 - 1 uM, ligand 25 ng/ml): 1.06; ability of recombinant RTK ligand to confer resistance (SK-MEL-28, PD184352 - 1 uM, ligand 100 ng/ml): 0.99; ability of recombinant RTK ligand to confer resistance (SK-MEL-28, PLX4720 - 2 uM, ligand 0.4 ng/ml): 0.92; ability of recombinant RTK ligand to confer resistance (SK-MEL-28, PLX4720 - 2 uM, ligand 1.6 ng/ml): 0.89; ability of recombinant RTK ligand to confer resistance (SK-MEL-28, PLX4720 - 2 uM, ligand 6.25 ng/ml): 0.98; ability of recombinant RTK ligand to confer resistance (SK-MEL-28, PLX4720 - 2 uM, ligand 25 ng/ml): 0.92; ability of recombinant RTK ligand to confer resistance (SK-MEL-28, PLX4720 - 2 uM, ligand 100 ng/ml): 0.98
